Reference: patent publication US20040038965A1, “Protease inhibitors” (priority 2003, published 2004)
pKi: −log10 of the molar value.

Columns and labels:
[1] = biological target: T1, human Cathepsin K (Homo sapiens, UniProt P43235); assay: Cathepsin K inhibition, fluorogenic peptide substrate, progress curve method; format: biochemical; conditions: human recombinant enzyme, pH 5.5
T1 sequence (P43235 115-329): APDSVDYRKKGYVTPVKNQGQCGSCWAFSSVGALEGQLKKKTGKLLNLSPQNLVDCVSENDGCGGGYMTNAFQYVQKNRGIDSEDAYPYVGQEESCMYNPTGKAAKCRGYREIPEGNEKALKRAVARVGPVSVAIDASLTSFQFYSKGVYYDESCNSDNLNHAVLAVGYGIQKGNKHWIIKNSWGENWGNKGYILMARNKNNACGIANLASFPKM
Experimental: Determination of Cathepsin K Proteolytic Catalytic Activity
All assays for cathepsin K were carried out with human recombinant enzyme. Standard assay conditions for the determination of kinetic constants used a fluorogenic peptide substrate, typically Cbz-Phe-Arg-AMC, and were determined in […] Na acetate at pH 5.5 containing 20 mM cysteine and 5 mM EDTA. Stock substrate solutions were prepared at concentrations of 10 or 20 mM in DMSO with 20 uM final substrate concentration in the assays. All assays contained 10% DMSO. […] All assays were conducted at ambient temperature. Product fluorescence (excitation at 360 nm; emission at 460 nm) was monitored with a Perceptive Biosystems Cytofluor II fluorescent plate reader. Product progress curves were generated over 20 to 30 minutes following formation of AMC product.
Potential inhibitors were evaluated using the progress curve method. Assays were carried out in the presence of variable concentrations of test compound. Reactions were initiated by addition of enzyme to buffered solutions of inhibitor and substrate. Data analysis was conducted according to one of two procedures depending on the appearance of the progress curves in the presence of inhibitors. For those-compounds whose progress curves were linear, apparent inhibition constants (Ki,app) were calculated according to equation 1 (Brandt et al., Biochemitsry, 1989, 28, 140): […]
v=VmA/[Ka(1+[…])+A] (1) where v is the velocity of the reaction with maximal velocity Vm, A is the concentration of substrate with Michaelis constant of Ka, and I is the concentration of inhibitor.
[AMC]=vsst+(v0−vss)[1−exp(−kobst)]]/kobs (2) where [AMC] is the concentration of product formed over time t, v0 is the initial reaction velocity and vss is the final steady state rate. Values for kobs were then analyzed as a linear function of inhibitor concentration to generate an apparent second order rate constant (kobs/inhibitor concentration or kobs/[I]) describing the time-dependent inhibition. A complete discussion of this kinetic treatment has been fully described (Morrison et al., Adv. Enzymol. Relat. Areas Mol. Biol., 1988, 61, 201).

[2] = biological target: human Cathepsin L (Homo sapiens, UniProt P07711); assay: Cathepsin L inhibition, progress curve method; format: biochemical
Chain of human Cathepsin L (P07711 114-333): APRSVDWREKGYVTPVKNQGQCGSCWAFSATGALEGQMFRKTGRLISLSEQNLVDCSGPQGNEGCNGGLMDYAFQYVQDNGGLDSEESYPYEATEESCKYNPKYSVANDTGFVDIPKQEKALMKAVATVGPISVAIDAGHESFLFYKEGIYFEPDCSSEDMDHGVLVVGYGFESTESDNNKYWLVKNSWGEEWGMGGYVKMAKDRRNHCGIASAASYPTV
Experimental: (§1) Potential inhibitors were evaluated using the progress curve method. Assays were carried out in the presence of variable concentrations of test compound. Reactions were initiated by addition of enzyme to buffered solutions of inhibitor and substrate. Data analysis was conducted according to one of two procedures depending on the appearance of the progress curves in the presence of inhibitors. For those-compounds whose progress curves were linear, apparent inhibition constants (Ki,app) were calculated according to equation 1 (Brandt et al., Biochemitsry, 1989, 28, 140):
(§2) v=VmA/[Ka(1+1/Ki, app)+A] (1)
(§3) where v is the velocity of the reaction with maximal velocity Vm, A is the concentration of substrate with Michaelis constant of Ka, and I is the concentration of inhibitor.

[3] = biological target: human Cathepsin S (Homo sapiens, UniProt P25774); assay: Cathepsin S inhibition, progress curve method; format: biochemical
Chain of human Cathepsin S (P25774 115-331): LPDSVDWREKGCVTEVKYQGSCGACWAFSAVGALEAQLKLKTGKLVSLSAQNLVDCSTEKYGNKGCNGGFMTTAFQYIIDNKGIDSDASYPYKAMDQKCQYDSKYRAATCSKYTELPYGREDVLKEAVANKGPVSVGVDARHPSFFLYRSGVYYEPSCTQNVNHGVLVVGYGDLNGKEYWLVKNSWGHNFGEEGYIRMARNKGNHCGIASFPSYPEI
Experimental: as §1, §2, §3

[4] = biological target: human Cathepsin B (Homo sapiens, UniProt P07858); assay: Cathepsin B inhibition, progress curve method; format: biochemical
Experimental: as §1, §2, §3

[5] = system: bone resorption; conditions: rats on calcium deficient diets, serum calcium; cited from earlier work
[6] = system: bone resorption; conditions: mouse bone organ culture; cited from earlier work
[7] = system: PTH stimulated bone resorption; conditions: mouse calvariae; cited from earlier work

Compound	pKi [1]	pKi [2]	pKi [3]	pKi [4]	further results
C[C@@H]1CC[C@H](NC(=O)C2(NC(=O)c3cc4sccc4s3)CCCCC2)C(=O)CN1S(=O)(=O)c1ccccn1 [Example 5, Thieno[3,2-b]thiophene-2-carboxylic Acid {1-[(4S,7R)-7-methyl-3-oxo-1-(pyridine-2-sulfonyl)-azepan-4-ylcarbamoyl]-cyclohexyl}-amide]	9.52	7.16	6.76	6.76	–
CC(C)C[C@H](NC(=O)[C@H]1O[C@@H]1C(=O)O)C(=O)NCCCCN=C(N)N [Example E-64, E-64]	–	–	–	–	prevention of bone resorption in vivo [5]: effective at preventing bone resorption in vivo
C[C@H](NC(=O)[C@H](Cc1ccccc1)NC(=O)OCc1ccccc1)C(=O)C=[N+]=[N-] [Z-Phe-Ala-CHN2]	–	–	–	–	prevention of bone resorption [6]: prevent bone resorption
CC(=O)N[C@@H](CC(C)C)C(=O)N[C@@H](CC(C)C)C(=O)N[C@H](C=O)CCCNC(=N)N [leupeptin]	–	–	–	–	prevention of bone resorption [6]: prevent bone resorption; prevention of bone resorption in vivo [5]: effective at preventing bone resorption in vivo
cystatin	–	–	–	–	inhibition of PTH stimulated bone resorption [7]: inhibits PTH stimulated bone resorption

Continued, in another order:

pKi [1]	pKi [2]	pKi [3]	pKi [4]	Compound	further results
9.24	6.57	6.20	6.36	O=C(NC1(C(=O)N[C@H]2CCCN(S(=O)(=O)c3ccccn3)CC2=O)CCCCC1)c1cc2sccc2s1 (racemic) [Example 2, Thieno[3,2-b]thiophene-2-carboxylic Acid {1-[(+/−)-3-oxo-1-(pyridine-2-sulfonyl)-azepan-4-ylcarbamorl]-cyclohexyl}-amide]	–
< 7.59	–	–	–	O=C(NC1(C(=O)N[C@@H]2CCCN(S(=O)(=O)c3ccccn3)CC2=O)CCCCC1)c1cc2ccccc2o1 [Example 1 (R), Benzofuran-2-carboxylic acid {1-[(R)-3-oxo-1-(pyridine-2-sulfonyl)-azepan-4-ylcarbamoyl]-cyclohexyl}-amide]	–
8.85	6.62	6.41	6.03	O=C(NC1(C(=O)N[C@H]2CCCN(S(=O)(=O)c3ccccn3)CC2=O)CCCCC1)c1cc2ccccc2o1 [Example 1, Benzofaran-2-carboxylic Acid {1-[(S)-3-oxo-1-(pyridine-2-sulfonel)-azepan-4-ylcarbamoyl]-cyclohexyl}-amide]	–
